Results on three molecules are retold here after US20230381343A1, “Treatment for Intraocular Pressure Related Disorders” (Mayo Foundation for Medical Education and Research, priority 2021, published 2023).

The test system of one experiment is C57BL/6J mice. Put plainly: Aqueous outflow parameters by constant flow infusion. Format: in vivo, mouse. The note with it: 6 weeks post intracameral injection, treatment day 5 for topical. From the text: To determine the effects of ssAAV2-smCBA-STC-1-FLAG on parameters of aqueous outflow, 3-month old C57BL/6J mice were separately treated with the following: 1) intracameral ssAAV2-smCB A-STC-1-FLAG (n=5), 2) intracameral ssAAV2-smCBA-GFP (n=5), 3) topical recombinant human STC-1 (n=4; Biovender Research and Diagnostic Products, Czech Republic) (Roddy et al., Invest Ophthalmol Vis Sci. 58:2715-24(2017); Roddy et al., PLoS ONE. 15(2020)), 4) topical latanoprost free acid (LFA; n=5; Cayman Chemical, Ann Arbor, MI), or 5) untreated mice (n=4). Mice that received topical treatments were treated with once daily topical doses of STC-1 (5 μl of 0.5 μg/μl) or LFA (10^-4 M) for 5 days prior to aqueous outflow experiments. Mice that received intracameral injections were treated 6 weeks prior to aqueous outflow measurements. Aqueous outflow was assessed using the protocols previously established (Millar et al., Invest Ophthalmol Vis Sci. 52:685-94(2011); Roy Chowdhury et al., Invest Ophthalmol Vis Sci. 58:5731-42(2017)). Briefly, a 33-g needle was used to cannulate the anterior chamber of anesthetized mice. The needle was connected to a flow-through pressure transducer (World Precision Instruments, Sarasota, FL) that was also connected to an SP101i microdialysis infusion pump (World Precision Instruments) and an open-ended, variable-height, raised reservoir manometer. Episcleral venous pressure was obtained by visualizing the reflux of blood into Schlemm's canal by direct ophthalmoscopy as the reservoir was lowered. Outflow facility was determined by slowly increasing the flow rate with the infusion pump and recording the pressure. Uveoscleral outflow was calculated when the inflow is presumed to be zero immediately after animal sacrifice. Aqueous humor formation was then estimated by using the modified Goldmann equation, i.e. aqueous formation rate=[outflow facility X (IOP−episcleral venous pressure)]+uveoscleral outflow as previously described (Millar et al., Invest Ophthalmol Vis Sci. 52:685-94(2011)). To validate the calculated IOP values based on the Goldman equation, IOP was also assessed with a handheld rebound tonometer. All data were recorded and analyzed using LabScribe software (World Precision Instruments).

The subject of experiment [1] is mouse model of experimental autoimmune uveitis. The experiment can be described thus: Experimental autoimmune uveitis (EAU), topical treatment. As to conditions: daily topical. Format: in vivo. On the procedure:
Following induction of experimental autoimmune uveitis (EAU), mice were treated daily with topical latanoprost free acid (LFA; 100 μM) or STC-1 (0.5 μg/mL) in one eye and vehicle in the other eye. At day 18, OCT was performed and retinal thickness was measured in a masked manner. At day 21, eyes were enucleated and processed for hematoxylin and eosin (H&E) staining.
Experimental autoimmune uveitis (EAU) was induced in the C57B/6 mouse with a protocol described elsewhere (see, e.g., Avichezer et al., Invest. Ophthalmol. Vis. Sci., 41(1):127-31 (2004)). Briefly, human interphotoreceptor retinoid binding protein (IRBP) in complete Freund's adjuvant was injected subcutaneously and pertussis toxin was injected intraperitoneally as an additional immune stimulus.

Another experiment relates to wild-type C57BL/6J mice. The experiment can be described thus: Steroid-induced (dexamethasone) ocular hypertension model, topical treatment. The format is in vivo, mouse. The text has this: All studies were approved by the Mayo Clinic (Rochester, MN) IACUC and adhered to ARVO guidelines. […] In the final phase of the experiment (experimental weeks 7-9, treatment weeks 4-6), dexamethasone-injected animals in Group 2 continued to receive topical STC-1 while treatment was halted in the vehicle-injected fellow eye for a medication wash-out period (FIG. 22). For statistical purposes, the final week of each condition was selected (i.e. weeks 3, 6, and 9) for analysis. To determine if a difference in IOP was present among groups at week 6 and 9, a Kruskal-Wallis test was performed. An unpaired t-test was used to directly compare the two groups. Values for all statistical tests were considered significant at P<0.05.
For both models histologic analysis was performed.

The conditions of experiment [2]: one eye, IOP 33 mmHg at 12 months after plaque.
From the text: Records were reviewed for patient demographics, clinical tumor features, treatment parameters, and outcomes, with attention to IOP and optic disc features.

Regarding `O=C(O)CCC/C=C\C[C@@H]1[C@@H](CC[C@@H](O)CCc2ccccc2)[C@H](O)C[C@@H]1O` [LFA, latanoprost free acid], in the experiment on C57BL/6J mice, the Episcleral venous pressure worked out at 10.0 ± 2.4 mmHg, the Outflow facility stood at 0.046 ± 0.02 μL/min/mmHg and the Uveoscleral outflow is 0.046 ± 0.02 µL/min. In the experiment on C57BL/6J mice (Goldmann equation), the “Calculated IOP” value is recorded as 14.0 ± 1.9 mmHg. For the same molecule, in the experiment on C57BL/6J mice (rebound tonometer), the “Measured IOP” value was 13.2 ± 0.9 mmHg. In addition, the “Retinal thickness by OCT vs vehicle control eye” value in experiment [1] (day 18) was “no significant difference in retinal thickness”. In addition, the “Vitreous inflammatory cells (H&E)” value in experiment [1] (day 21) is “trend toward greater vitreous cell”.

On to `CC(=O)OCC(=O)[C@@]1(O)[C@H](C)C[C@H]2[C@@H]3CCC4=CC(=O)C=C[C@]4(C)[C@@]3(F)[C@@H](O)C[C@@]21C` [dexamethasone, dexamethasone acetate], for which the IOP in the experiment on wild-type C57BL/6J mice (PBS-treated dexamethasone-injected eyes, week 6, n=8) amounted to 19.5±1.7 mmHg; in the experiment on wild-type C57BL/6J mice (PBS-treated dexamethasone-injected eyes, week 9, n=8), 19.7±1.3 mmHg; in the experiment with wild-type C57BL/6J mice (dexamethasone-injected eyes, week 3, n=18) it was 19.7±1.8 mmHg. The “Increase in IOP vs vehicle-injected eyes” value in the experiment with wild-type C57BL/6J mice (after 3 weekly conjunctival fornix injections, n=18) amounted to 18%. Further, the “IOP change vs PBS-treated vehicle-injected eyes” value with wild-type C57BL/6J mice (week 6, n=8) is 25%.

Consider “dorzolamide hydrochloride-timolol maleate”, for which, in experiment [2], the “Response of IOP spike to topical therapy” value is recorded as “responded”.
